What all share (type): in vivo
Experiment [1] deals with Cabbage Looper (Trichoplusia ni, TRIPNI). In words: Bioassays on Cabbage Looper (CL), 128-well diet tray assay. As to conditions: for pest or weed control at 50 µg/cm2: Trichoplusia ni. In short, it runs like this: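 Test molecule was dissolved in 90:10 acetone-water, applied to artificial diet at 50 μg/cm^2 and allowed to dry. Second-instar larvae were then added, one to five per well, and trays held at 25° C for five to seven days before mortality was scored and averaged.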

Experiment [2] concerns Beet Armyworm (Spodoptera exigua, LAPHEG). In words: Bioassays on Beet Armyworm (BAW), 128-well diet tray assay. As to conditions: for pest or weed control at 50 µg/cm2: Spodoptera exigua. In short, it runs like this:
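One to five second-instar larvae per well on artificial diet surface-treated with 50 μg/cm^2 test molecule (applied in 90:10 acetone-water, dried), eight wells per compound. Trays held vented at 25° C., 14:10 light-dark for five to seven days; percent mortality averaged over the eight wells.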

In experiment [3] the test system is Yellow Fever Mosquito (Aedes aegypti, AEDSAE). As to conditions: for YFM rating: Table ABC / ABC-DP rating. In short, it runs like this: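 Compounds from 4000 ppm DMSO stocks were diluted in 90:10 water/acetone and dispensed into wells, then infested with about 1-day-old larvae in liver-powder water. Covered plates were held at room temperature for 3 days and each well was scored for mortality against a rating scale; six replicate plates per compound.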

The test system of experiment [4] is Green Peach Aphid (Myzus persicae, MYZUPE). In words: Bioassays on Green Peach Aphid (GPA), foliar spray on cabbage seedlings. As to conditions: 72 h. In a few lines: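 Percent control (Abbott-corrected versus solvent-sprayed plants) comes from live-aphid counts three days after treatment at about 25° C. Test solution at 200 ppm was sprayed to runoff onto both leaf surfaces of cabbage seedlings infested a day earlier with 20-50 aphids; four replicate pots.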

The mark [5] stands for this setting: Cabbage Looper, rating class, read-out: CL.
[6] abbreviates: Beet Armyworm, rating class, read-out: BAW.
[7] abbreviates: Yellow Fever Mosquito, rating class.
[8] abbreviates: Green Peach Aphid, rating class, read-out: GPA.
Setting [9] is: Cabbage Looper, Table ABC / ABC-DP rating, read-out: CL rating.
Where [10] appears, read: Beet Armyworm, Table ABC / ABC-DP rating, read-out: BAW rating.
Where [11] appears, read: Green Peach Aphid, Table ABC / ABC-DP rating, read-out: GPA rating.
Setting [12] is: Table ABC: Biological Results, species CL, read-out: CL.
[13] abbreviates: Table ABC: Biological Results, species BAW, read-out: BAW.
The mark [14] stands for this setting: Table ABC: Biological Results, species YFM.
[15] abbreviates: Table ABC: Biological Results, species GPA, read-out: GPA.

Read-outs that look alike come from different tables or passages of the source.

`CCC(C)C(=O)Nc1c(F)ccc(NC(=O)c2cc(NC(=O)[C@H]3[C@H](c4ccc(F)c(C(F)(F)F)c4)C3(Cl)Cl)ccc2Cl)c1F` (stereo partly drawn) [F1642, 2-Chloro-5-((1R,3R)-2,2-dichloro-3-(4-fluoro-3-(trifluoromethyl)phenyl)cyclopropane-1-carboxamido)-N-(2,4-difluoro-3-(2-methylbutanamido)phenyl)benzamide]: the pest or weed control at 50 µg/cm2 in experiment [1] (setting [5]) and in experiment [2] (setting [6]) was 50 to 100% in each case. For the same molecule, the YFM entry in experiment [3] (setting [7]) was “A (80–100)”. In addition, the pest or weed control at 200 µg/mL in experiment [4] (setting [8]) lay within 0 to 80%.
For the molecule `O=C(NCC(F)(F)F)c1cc(NC(=O)[C@H]2[C@H](c3ccc(F)c(Cl)c3F)C2(Cl)Cl)ccc1Cl` (relative stereo) [F2011, trans-2-Chloro-5-(2,2-dichloro-3-(3-chloro-2,4-difluorophenyl)cyclopropane-1-carboxamido)-N-(2,2,2-trifluoroethyl)benzamide], the pest or weed control at 50 µg/cm2 in experiment [1] (setting [9]) and in experiment [2] (setting [10]) was 50 to 100% each time. Further, the YFM rating entry in experiment [3] (Yellow Fever Mosquito) is recorded as “A (80–100)”. In addition, in experiment [4] (setting [11]), the pest or weed control at 200 µg/mL fell in the range of 0 to 80%.
Consider `O=C(Nc1ccc(F)cc1)c1c(Cl)ccc(NC(=O)[C@H]2[C@H](c3ccc(F)c(Cl)c3)C2(Cl)Cl)c1Cl` (relative stereo) [F1103, trans-2,6-Dichloro-3-(2,2-dichloro-3-(3-chloro-4-fluorophenyl)cyclopropane-1-carboxamido)-N-(4-fluorophenyl)benzamide], for which the pest or weed control at 50 µg/cm2 in experiment [1] (setting [12]) and in experiment [2] (setting [13]) was 50 to 100% each time. Also, the YFM entry in experiment [3] (setting [14]) is recorded as “A (80–100)”. In addition, the pest or weed control at 200 µg/mL in experiment [4] (setting [15]) lay within 0 to 80%.
Turning to `CC(=O)Nc1ccc(F)c(NC(=O)c2cc(NC(=O)[C@H]3[C@H](c4cc(Cl)cc(Cl)c4)C3(Cl)Cl)ccc2Cl)c1` (relative stereo) [F1635, trans-N-(5-Acetamido-2-fluorophenyl)-2-chloro-5-(2,2-dichloro-3-(3,5-dichlorophenyl)cyclopropane-1-carboxamido)benzamide], the pest or weed control at 50 µg/cm2 in experiment [1] (setting [5]) and in experiment [2] (setting [6]) was 50 to 100% in each case. In addition, the YFM result in experiment [3] (setting [7]) is “A (80–100)”. Besides, in experiment [4] (setting [8]), the pest or weed control at 200 µg/mL was 0 to 80%.
As for `O=C(NCCNC(=O)C(F)(F)F)c1cc(NC(=O)[C@H]2[C@H](c3cc(Cl)cc(Cl)c3)C2(Cl)Cl)ccc1Cl` (relative stereo) [F2082, trans-2-Chloro-5-(2,2-dichloro-3-(3,5-dichlorophenyl)cyclopropane-1-carboxamido)-N-(2-(2,2,2-trifluoroacetamido)ethyl)benzamide], the CL rating result in experiment [1] (Cabbage Looper, Table ABC / ABC-DP rating) is “A (50–100)”. In addition, the BAW rating result in experiment [2] (Beet Armyworm, Table ABC / ABC-DP rating) is “A (50–100)”. Moreover, the YFM rating result in experiment [3] (Yellow Fever Mosquito) is “B (More than 0 – Less than 80)”. Further, the pest or weed control at 200 µg/mL in experiment [4] (setting [11]) was in the range of 80 to 100%.
For `O=C(Nc1ccc(F)c(NC(=O)C(F)F)c1F)c1cc(NC(=O)[C@H]2[C@H](c3cc(F)cc(C(F)(F)F)c3)C2(Cl)Cl)ccc1Cl` [F1711, 2-Chloro-5-((1R,3R)-2,2-dichloro-3-(3-fluoro-5-(trifluoromethyl)phenyl)cyclopropane-1-carboxamido)-N-(3-(2,2-difluoroacetamido)-2,4-difluorophenyl)benzamide], the pest or weed control at 50 µg/cm2 in experiment [1] (setting [5]) and in experiment [2] (setting [6]) was 50 to 100% each time. Further, the YFM result in experiment [3] (setting [7]) is “A (80–100)”. Besides, the pest or weed control at 200 µg/mL in experiment [4] (setting [8]) was in the range of 80 to 100%.
On to `O=C(Nc1ccc(F)c(NC(=O)C(F)(F)C(F)(F)F)c1F)c1cc(NC(=O)[C@H]2[C@H](c3ccc(F)c(Cl)c3)C2(Cl)Cl)ccc1Cl` [F1696, 2-Chloro-5-((1R,3R)-2,2-dichloro-3-(3-chloro-4-fluorophenyl)cyclopropane-1-carboxamido)-N-(2,4-difluoro-3-(2,2,3,3,3-pentafluoropropanamido)phenyl)benzamide], for which the pest or weed control at 50 µg/cm2 in experiment [1] (setting [5]) and in experiment [2] (setting [6]) was 50 to 100% each time. The YFM entry in experiment [3] (setting [7]) is listed as “A (80–100)”. The pest or weed control at 200 µg/mL in experiment [4] (setting [8]) is 80 to 100%.
With `CC(F)(F)CNC(=O)c1cc(NC(=O)[C@H]2[C@H](c3cc(Cl)cc(Cl)c3)C2(Cl)Cl)ccc1Cl` (relative stereo) [F2075, trans-2-Chloro-5-(2,2-dichloro-3-(3,5-dichlorophenyl)cyclopropane-1-carboxamido)-N-(2,2-difluoropropyl)benzamide], the pest or weed control at 50 µg/cm2 in experiment [1] (setting [9]) and in experiment [2] (setting [10]) was 50 to 100% each time. In addition, the YFM rating result in experiment [3] (Yellow Fever Mosquito) is listed as “B (More than 0 – Less than 80)”. Moreover, in experiment [4] (setting [11]), the pest or weed control at 200 µg/mL lay within 80 to 100%.
Regarding `O=C(CNC(=O)c1cc(NC(=O)[C@H]2[C@H](c3cc(Cl)cc(Cl)c3)C2(Cl)Cl)ccc1Cl)NCC(F)(F)F` (relative stereo) [F2078, trans-2-Chloro-5-(2,2-dichloro-3-(3,5-dichlorophenyl)cyclopropane-1-carboxamido)-N-(2-oxo-2-(2,2,2-trifluoroethylamino)ethyl)benzamide], the pest or weed control at 50 µg/cm2 in experiment [1] (setting [9]) and in experiment [2] (setting [10]) was 50 to 100% in each case. For the same molecule, the YFM rating entry in experiment [3] (Yellow Fever Mosquito) is “A (80–100)”. For the same molecule, in experiment [4] (setting [11]), the pest or weed control at 200 µg/mL lay within 80 to 100%.
Consider `O=C(Nc1ccc(F)c(NC(=O)C(F)(F)F)c1F)c1cc(NC(=O)[C@H]2[C@H](c3ccc(Cl)c(Cl)c3)C2(Cl)Cl)ccc1F` [F1492, 5-((1R,3R)-2,2-Dichloro-3-(3,4-dichlorophenyl)cyclopropane-1-carboxamido)-N-(2,4-difluoro-3-(2,2,2-trifluoroacetamido)phenyl)-2-fluorobenzamide], for which the pest or weed control at 50 µg/cm2 in experiment [1] (setting [5]) and in experiment [2] (setting [6]) was 50 to 100% each time. For the same molecule, the YFM entry in experiment [3] (setting [7]) is “A (80–100)”. Further, the pest or weed control at 200 µg/mL in experiment [4] (setting [8]) lay within 0 to 80%.
Regarding `CC(=O)Nc1c(F)ccc(NC(=O)c2cc(NC(=O)[C@H]3[C@H](c4ccc(F)c(Cl)c4)C3(Cl)Cl)ccc2Cl)c1F` [F1694, N-(3-Acetamido-2,4-difluorophenyl)-2-chloro-5-((1R,3R)-2,2-dichloro-3-(3-chloro-4-fluorophenyl)cyclopropane-1-carboxamido)benzamide], the pest or weed control at 50 µg/cm2 in experiment [1] (setting [5]) and in experiment [2] (setting [6]) was 50 to 100% throughout. Also, the YFM entry in experiment [3] (setting [7]) is on record as “A (80–100)”. Also, in experiment [4] (setting [8]), the pest or weed control at 200 µg/mL fell in the range of 80 to 100%.
In the case of `O=C1CC(C(=O)Nc2c(F)ccc(NC(=O)c3cc(NC(=O)[C@H]4[C@H](c5ccc(Cl)c(Cl)c5)C4(Cl)Cl)ccc3Cl)c2F)C1` [F1475, 2-Chloro-5-((1R,3R)-2,2-dichloro-3-(3,4-dichlorophenyl)cyclopropane-1-carboxamido)-N-(2,4-difluoro-3-(3-oxocyclobutane-1-carboxamido)phenyl)benzamide], the pest or weed control at 50 µg/cm2 in experiment [1] (setting [5]) and in experiment [2] (setting [6]) was 50 to 100% in each case. Besides, the YFM entry in experiment [3] (setting [7]) is listed as “A (80–100)”. Also, in experiment [4] (setting [8]), the pest or weed control at 200 µg/mL is 0 to 80%.
Regarding `Nc1ccc(F)c(NC(=O)c2cc(NC(=O)[C@H]3[C@H](c4ccc(F)c(Cl)c4)C3(Cl)Cl)ccc2Cl)c1F` [F1247, N-(3-Amino-2,6-difluorophenyl)-2-chloro-5-((1R,3R)-2,2-dichloro-3-(3-chloro-4-fluorophenyl)cyclopropane-1-carboxamido)benzamide], the pest or weed control at 50 µg/cm2 in experiment [1] (setting [12]) and in experiment [2] (setting [13]) was 50 to 100% each time. In experiment [3] (setting [14]), the YFM result is reported as “A (80–100)”. In addition, the pest or weed control at 200 µg/mL in experiment [4] (setting [15]) lay in the range of 80 to 100%.
Consider `O=C(Nc1ccc(F)c(NC(=O)C(F)(F)F)c1F)c1cc(NC(=O)[C@H]2[C@H](c3ccc(F)c(C(F)(F)F)c3)C2(Cl)Cl)ccc1F` [F1529, 5-((1R,3R)-2,2-Dichloro-3-(4-fluoro-3-(trifluoromethyl)phenyl)cyclopropane-1-carboxamido)-N-(2,4-difluoro-3-(2,2,2-trifluoroacetamido)phenyl)-2-fluorobenzamide], for which the pest or weed control at 50 µg/cm2 in experiment [1] (setting [5]) and in experiment [2] (setting [6]) was 50 to 100% throughout. The YFM entry in experiment [3] (setting [7]) was “A (80–100)”. The pest or weed control at 200 µg/mL in experiment [4] (setting [8]) lay in the range of 0 to 80%.
For `CCC(=O)Nc1c(F)ccc(NC(=O)c2cc(NC(=O)[C@H]3[C@H](c4ccc(F)c(Cl)c4)C3(Cl)Cl)ccc2Cl)c1F` [F1704, 2-Chloro-5-((1R,3R)-2,2-dichloro-3-(3-chloro-4-fluorophenyl)cyclopropane-1-carboxamido)-N-(2,4-difluoro-3-propionamidophenyl)benzamide], the pest or weed control at 50 µg/cm2 in experiment [1] (setting [5]) and in experiment [2] (setting [6]) was 50 to 100% each time. Besides, the YFM entry in experiment [3] (setting [7]) is “A (80–100)”. Besides, the pest or weed control at 200 µg/mL in experiment [4] (setting [8]) fell in the range of 80 to 100%.
